Assay results taken from US8053413B2, “Methods for treating sleep disorders by cholecystokinin (CCK) receptor B antagonists” (The Board of Trustees of the University of Illinois, priority 2005, dated 2011).

Tests used:
[1] = test system: sleep apnea (OSAS, central apnea); settings: cited from earlier work; for effect in individuals with obstructive sleep apnea (OSAS) / effect in individuals with central apnea: patients; for effect in individuals with central apnea: primarily central apneas
[2] = test system: spontaneous sleep apnea in the rat; experiment: Spontaneous sleep apnea in the rat: plethysmograph, EEG and EMG recording after i.p. injection; type: in vivo, Sprague-Dawley rats; settings: for SP apnea index, % of placebo value: spontaneous (SP) apneas, p<0.03; for efficacy against sleep apnea (rate of apneas per hour of NREM and REM sleep): 6 hours polygraphic recording, i.p.
Procedure: Adult, male Sprague-Dawley rats (Sasco-King, Wilmington, Mass.), usually 8 per test group with an average weight of 300 grams, are maintained on a 12-hour light/12-hour dark cycle for one week. The animals are housed in individual cages and given ad libitum access to food and water. Following the one week of acclimatization, animals are subjected to the following surgical procedures.
Acclimatized animals are anesthetized using a mixture of ketamine (80 mg/kg) and xylazine (5 mg/kg) at a volume of 1 ml/kg body weight for the implantation of cortical electrodes for electroencephalogram (EEG) recording and neck muscle electrodes for electromyogram (EMG) recording. The surface of the skull is exposed surgically and cleaned with a 20% solution of hydrogen peroxide followed by a solution of 95% isopropyl alcohol. A dental preparation of sodium fluoride (FLURA-GEL; Saslow Dental, Mt. Prospect, Ill.) is subsequently applied to harden the skull above the parietal cortex and allowed to remain in place for 5 minutes. The fluoride mixture is then removed from the skull above the parietal cortex. The EEG electrodes consisting of four stainless steel machine screws, having leads attached thereto, are threaded into the skull to rest on the dura over the parietal cortex. A thin layer of JUSTI resin cement (Saslow Dental, Mt. Prospect, Ill.) is applied to cover the screw heads (of screws implanted in the skull) and surrounding skull to further promote the adhesion of the implant. EMG electrodes consisting of two ball-shaped wires are inserted into the bilateral neck musculature. All leads (i.e., EEG and EMG leads) are soldered to a miniature connector (39F1401; Newark Electronics, Schaumburg, Ill.). The entire assembly is subsequently fixed to the skull with dental cement.
Physiological parameters from each animal prepared as described herein are recorded on two to five occasions in random order, with recordings for an individual animal separated by at least 3 days. Fifteen minutes prior to each recording an animal receives a systemic injection (1 mL/kg intraperitoneal bolus) of either saline (control) or an active dose of a drug treatment.
Respiration is recorded by placing each animal, unrestrained, inside a single chamber plethysmograph (PLYUNIR/U; Buxco Electronics, Sharon, Conn.; dimension 6 inches×10 inches×6 inches) ventilated with a bias flow of fresh room air at a rate of 2 Liters/minute. A cable plugged onto the animal's connector and passed through a sealed port is used to collect the bioelectrical activity from the head implant.
Sleep and waking states are assessed using conventional software (Benington, et al. (1994) Sleep 17:28-36) to analyze the biparietal EEG and nuchal EMG signals on 10-second epochs. The software discriminates wakefulness (W) as a high frequency low amplitude EEG with a concomitant high EMG tone, NREM sleep by increased spindle and […] activity together with decreased EMG tone, and REM sleep by a […] activity and an absence of EMG tone. Sleep efficiency is measured as the percentage of total recorded epochs staged as NREM or REM sleep.
An accepted physiological animal model of spontaneous sleep apnea in the rat (see Radulovacki & Carley (2002) In: Sleep-Related Breathing Disorder: Experimental Models and Therapeutic Potential (Carley & Radulovacki, eds.) Marcel Dekker: New York, pp. 3-16) is used to assess the effects of test drugs. More specifically, sleep apneas, defined as cessation of respiratory effort for at least 2.5 seconds, are scored for each recording session and associated with the stage of sleep in which they occur (i.e., NREM or REM sleep). The duration requirement of 2.5 seconds represents at least two “missed” breaths, which is therefore analogous to a 10 second apnea duration requirement in humans, which also reflects two to three missed breaths. […]

[3] = test system: CCK-induced depolarization of nodose ganglion neurons; settings: isolated nodose ganglion cells; cited from earlier work
central apneas = settings: rats with frequent central apneas during all sleep stages; cited from earlier work
sleep apnea = settings: cited from earlier work
[4] = individuals with obstructive sleep apnea

Compound: O=C1CC2(CCCC2)CC(=O)N1CCCCN1CCN(c2ncccn2)CC1 [Buspirone]
- post-surgical apneustic breathing ([1]; one child): eliminate post-surgical apneustic breathing
- patients with reduced apnea index ([1]; patients with sleep apnea syndrome): 4 of 5

Compound: Cc1cc(C)c(NC(=O)C[C@H](CC(=O)O)c2cccc3ccccc23)c(C(=O)N2CCC3(CCCC3)CC2)c1 [CR2945]
- SP apnea index, % of placebo value ([2]; 0.5 mg/kg i.p. in DMSO, rats): 42%
- SP apnea index, % of placebo value ([2]; 5.0 mg/kg i.p. in DMSO, rats): 31%
- REM SP apnea index ([2]; all four doses 0.005, 0.05, 0.5, 5.0 mg/kg i.p., p<0.04 for each): significantly reduced
- frequency of spontaneous central apnea expression ([2]; all sleep stages, rats, systemic injection): significantly reduced
- apnea duration ([2]; any dose 0.005-5.0 mg/kg i.p., p=0.7): not affected

Compound: Cc1cccc(NC(=O)N[C@@H]2N=C(c3ccccc3)c3ccccc3N(C)C2=O)c1 [L-365,260]
- efficacy against sleep apnea (rate of apneas per hour of NREM and REM sleep) ([2]; rats): dose-dependent efficacy
- potency in blocking CCK-induced depolarization of nodose ganglion neurons [3]: less potent

Compound: COc1cc(N)c(Cl)cc1C(=O)N[C@H]1CN2CCC1CC2 [R-zacopride]
- apnea frequency (central apneas): reduce apnea frequency

Compound: CC(=O)Nc1nnc(S(N)(=O)=O)s1 [acetazolamide]
- effect in individuals with obstructive sleep apnea (OSAS) [1]: increase in obstructive apneas
- effect in individuals with central apnea [1]: variable improvement

Compound: Nc1ncnc2c1ncn2[C@@H]1O[C@H](CO)[C@@H](O)[C@H]1O [adenosine]
- reduction of apnea in an animal model of sleep apnea (sleep apnea): somewhat effective in reducing apnea

Compound: CN1C(=O)[C@@H](NC(=O)c2cc3ccccc3[nH]2)N=C(c2ccccc2)c2ccccc21 [devazepide]
- efficacy against sleep apnea (rate of apneas per hour of NREM and REM sleep) ([2]; rats): dose-dependent efficacy
- potency in blocking CCK-induced depolarization of nodose ganglion neurons [3]: highly potent

Compound: CCN1CC(CCN2CCOCC2)C(c2ccccc2)(c2ccccc2)C1=O (centres unmarked) [doxapram]
- average arterial oxygen saturation [1, 4]: does not alter
- length of apneas [1, 4]: decreasing the length of apneas

Compound: CCCCCN(CCCCC)C(=O)C(CCC(=O)O)NC(=O)c1ccc(Cl)c(Cl)c1 (centres unmarked) [lorglumide]
- efficacy against sleep apnea (rate of apneas per hour of NREM and REM sleep) ([2]; rats): dose-dependent efficacy

Compound: CN1CCN2c3ncccc3Cc3ccccc3C2C1 (centres unmarked) [mirtazapine]
- apnea frequency (central apneas): reduce apnea frequency
- reduction of apnea frequency ([1]; one study of OSAS patients): 50%

Compound: C=CCN1CC[C@]23c4c5ccc(O)c4O[C@H]2C(=O)CC[C@@]3(O)[C@H]1C5 [naloxone]
- effect in individuals with obstructive sleep apnea (OSAS) [1]: only slightly helpful

Compound: Cc1nccn1CC1CCc2c(c3ccccc3n2C)C1=O (centres unmarked) [ondansetron]
- apnea frequency (central apneas): reduce apnea frequency
- effect in individuals with obstructive sleep apnea (OSAS) [1]: failed to demonstrate any effect

Compound: CNCCCC1c2ccccc2C=Cc2ccccc21 [protriptyline]
- effect in individuals with obstructive sleep apnea (OSAS) [1]: variable results
- side effects ([1]; several small trials in individuals with OSAS): frequent and significant side effects

Compound: Cn1c(=O)c2[nH]cnc2n(C)c1=O [theophylline]
- effect in individuals with obstructive sleep apnea (OSAS) [1]: of no use
- effect in individuals with central apnea [1]: may benefit

Compound: CCCCCc1cc(O)c2c(c1)OC(C)(C)[C@@H]1CCC(C)=C[C@@H]21 [Δ9-tetrahydrocannibinol]
- reduction of apnea in an animal model of sleep apnea (sleep apnea): reduce sleep apneas

Compound: medroxyprogesterone
- effect in individuals with obstructive sleep apnea (OSAS) [1]: no consistent benefit
